Test results published in US8277842B1, “Enteric-coated HT-2157 compositions and methods of their use” (Dart NeuroScience (Cayman) Ltd., priority 2012, dated 2012).

Legend:
[1] = Repeat-dose animal toxicology studies, PO; type: in vivo, mice, rats, dogs; settings: non-enteric coated
[2] = Ninety-day study with HT-2157, methemoglobin formation, mice; type: in vivo
From the text: (§1) These findings indicate that a process of hemolytic anemia and compensatory hematopoietic response to anemia occurred in the animals. The hemolytic anemia was reversible upon discontinuation of drug treatment. In animals at high doses, there were also increases in methemoglobin of between 30 and 40% in treatment as compared to control animals. These increases resolved 1 to 2 weeks after discontinuation of dosing.

[3] = after systemic administration; Oegren et al. 2006; cited from earlier work
[4] = Metabolite HT-2800 in microsomes incubated with HT-2157, mouse; type: in vitro ADME
Method: (§2) Such HT-2157 administration studies were carried out in several animal models, including rats, dogs (as well as mice). In this regard, the major human metabolite of HT-2157, HT-2800, was found in human, mouse, and monkey microsomes following incubation with the HT-2157 compound, but it was not detected in rat or dog microsomes or in plasma collected from dogs dosed with HT-2157.

[5] = Metabolite HT-2800 in plasma of dogs dosed with HT-2157; type: in vivo, dog; settings: plasma collected from dogs dosed with HT-2157
Method: as §2

[6] = Metabolite HT-2800 in microsomes incubated with HT-2157, rat; type: in vitro ADME
Method: as §2

[7] = 28-day oral toxicity study with non-enteric coated HT-2157, dog; type: in vivo; settings: for Cmax / AUC(0-t): plasma, 50 mg/kg/day, at NOEL; for AUC(0-t): read-out: AUC0-24 of HT-2157 in plasma
Method: (§3) Consequently, separate toxicokinetic studies directed to […] (without an enteric coating) were performed in rat and in dog, which is considered the more sensitive species. […] In these studies, the non-toxic dose level for oral administration of HT-2157 over 28 days was 30 mg/kg/day for female rats, 100 mg/kg/day for male rats and 50 mg/kg/day for dogs (both sexes). Table 1 lists the mean Cmax and AUC values of HT-2157 in the plasma associated with these dosages: […]

[8] = Ninety-day study with HT-2157, methemoglobin formation, dogs; type: in vivo
From the text: as §1

[9] = Metabolite HT-2800 in microsomes incubated with HT-2157, monkey; type: in vitro ADME
Method: as §2

[10] = Metabolite HT-2800 in microsomes incubated with HT-2157, human; type: in vitro ADME
Method: as §2

in vivo = settings: rat, po; for AUC(0-t): AUC0-24 of HT-2157 in plasma; for Cmax: Cmax of HT-2157 in plasma; for NOEL / NOEL (first NOEL column) / non-toxic dose level: 28 days
Method: as §3

[11] = Metabolite HT-2800 in microsomes incubated with HT-2157, dog; type: in vitro ADME
Method: as §2

[12] = Ninety-day study with HT-2157, methemoglobin formation, rats; type: in vivo
From the text: as §1

[13] = female, female dog, day 1 of dosing
[14] = female, female dog, day 28 of dosing
[15] = male, male dog, day 1 of dosing
[16] = male, male dog, day 28 of dosing

O=C1C(=Nc2cccc(C(F)(F)F)c2)c2ccccc2N1c1ccc(O)cc1 [HT-2800]
drug-related findings in repeat-dose toxicology ([1]; rats up to 6 months, dogs 9 months): dose-dependent shifts in hemoglobin fractions (methemoglobin, carboxyhemoglobin, oxyhemoglobin) and mild to moderate reversible hemolytic anemia with associated compensatory responses

O=C1C(=Nc2cccc(C(F)(F)F)c2)c2ccccc2N1c1ccccc1 [HT-2157]
dose with statistically significant methemoglobin formation [2]: 750 mg/kg/day
blood-brain barrier passage [3]: can cross the blood-brain barrier
metabolite HT-2800 following incubation with HT-2157 [4]: found
metabolite HT-2800 in plasma [5]: not detected
metabolite HT-2800 following incubation with HT-2157 [6]: not detected
non-toxic dose level ([7]; both, in vivo, 28 days): 50 mg/kg/day
NOEL ([7]; female, in vivo, 28 days): 1000
NOEL (first NOEL column) ([7]; female, in vivo, 28 days): 50
Cmax [7, 13]: 162 ng/mL
AUC(0-t) [7, 13]: 571 ng·h/mL
Cmax [7, 14]: 104 ng/mL
AUC(0-t) [7, 14]: 799 ng·h/mL
NOEL ([7]; male, in vivo, 28 days): 1000
NOEL (first NOEL column) ([7]; male, in vivo, 28 days): 50
Cmax [7, 15]: 99 ng/mL
AUC(0-t) [7, 15]: 676 ng·h/mL
Cmax [7, 16]: 87.1 ng/mL
AUC(0-t) [7, 16]: 550 ng·h/mL
dose with statistically significant methemoglobin formation [8]: ≥ 30 mg/kg/day
metabolite HT-2800 following incubation with HT-2157 [9]: found
metabolite HT-2800 following incubation with HT-2157 [10]: found
AUC0-24 of HT-2157 in plasma (in vivo; female, 30 mg/kg/day): 235 ng·h/mL
AUC(0-t) (in vivo; female, 30 mg/kg/day): 283 ng·h/mL
Cmax (in vivo; female, 30 mg/kg/day): 109 ng/mL
NOEL (in vivo; female): 177
NOEL (first NOEL column) (in vivo; female): 30
non-toxic dose level (in vivo; female): 30 mg/kg/day
AUC0-24 of HT-2157 in plasma (in vivo; male, 100 mg/kg/day): 1445 ng·h/mL
AUC(0-t) (in vivo; male, 100 mg/kg/day): 1380 ng·h/mL
Cmax (in vivo; male, 100 mg/kg/day): 252 ng/mL
NOEL (in vivo; male): 590
NOEL (first NOEL column) (in vivo; male): 100
non-toxic dose level (in vivo; male): 100 mg/kg/day
metabolite HT-2800 following incubation with HT-2157 [11]: not detected
dose with statistically significant methemoglobin formation [12]: 150 mg/kg/day
drug-related findings in repeat-dose toxicology ([1]; mice up to 3 months, rats up to 1 year, dogs up to 9 months): dose-dependent shifts in hemoglobin fractions (methemoglobin, carboxyhemoglobin, oxyhemoglobin) and mild to moderate reversible hemolytic anemia with associated compensatory responses
